Test results reported in patent publication US20210268070A1, “Use of Immunomodulators to Control Infection and Stimulate Healing in Normal and Diabetic Wounds” (priority 2018, published 2021).

Experiments:
P. aeruginosa PA103 [1] = test: Wound model of infection with PA103 in normal (C57BL) mice; type: in vivo
Protocol: (§1) The implant model of infection in C57B mice was used for 10^6 PA103 (FIG. 2A) or 10^6 USA300 MRSA (FIG. 2C). The wound model of infection was used for 10^6 PA103 in C57BL mice (FIG. 2B) or diabetic db/db mice (FIG. 2D). Infection was carried out at the time of surgery by adding bacteria directly to the surgical sites. Immunomodulators, namely, LPS (10 ng or 100 ng), fMLP (10 ng or 100 ng), CCL3 (1 μg) were added topically at the surgical sites at the time of surgery & infection. GM-CSF (10 μg/kg), tobramycin (Tob at 3.5 mg/kg), and vancomycin (40 mg/kg) were added systemically by i.p. injection 1 h before surgical implantation and infection. Infection levels were determined 24 h following infection (N>4 animals/group; NS=not significant, * p<0.01, ** p<0.001, ***p<0.0001 One-way ANOVA).
(§2) (15A) C57BL/6 mice received 40 mg/kg prophylaxis (Sys) vancomycin (Vanc) or 3.5 mg/kg tobramycin (Tobra) by i.p. injection. (15A) 1 h after antibiotic administration, 106 CFU of USA300 was added to implant after insertion into facia (Implant Model). (15B) 1 h after antibiotic administration, 10^6CFU of USA300 or 106CFU PA103 (Pa) were added full-thickness wounds in of C57BL/6 (Wound Model). Infection levels at implant surgical site (Tissue & Implant) or a distant site (Spleen), or wound tissues were assessed 24 h following infection. (N>4 animals/group, * p<0.01, ***p<0.0001, One-way ANOVA).
(§3) We assessed these immunomodulators for their ability to control wound and/or implant SS's in normal (C57BL/6) or diabetic (db/db) mice. We acknowledge that diabetic individuals are not as immunocompromised as other immunocompromised patient groups. […] All immunomodulators were added locally at the surgical sites at the time of infection, except GM-CSF (10 μg/kg) which was administered systemically by i.p. injection 1 h prior to surgery per its FDA-approved route of delivery. […] CCL3 and GM-CSF are also tested using the implant model of infection. Here, we tested CCL3 and GM-CSF in the wound model of infection in C57B mice.
Implant surgery and wound surgery and surgical site infection are performed according to the following method. On the day of surgery, all mice are anesthetized by an intraperitoneal injection of a ketamine/xylazine mixture (90 mg/kg ketamine+5 mg/kg xylazine for mice). The back of the animals is shaved using an electric shave and scrubbed with alcohol swabs 3 times, a topical antiseptic solution (Hibiclens; chlorhexidine gluconate) is applied to the skin. The surgical procedures are performed with sterile instruments, sterile surgical gloves, and aseptic techniques as follows. For wound surgical procedure, a sterile biopsy punch (5-7 mm diameter) is used to punch through the full thickness of the back skin below the shoulder blades. Four 5-7 mm skin wounds are made on the back of each mouse. Wounds placed in this area cannot be reached by the animals and therefore are protected from self-licking. For implant surgery, a 4-mm long lateral skin incision is made on the upper back, and the skin is retracted. The space above the muscle is opened using blunt dissection with fine forceps, to create a rostral fascia indentation. Then, immunomodulators at indicated concentrations (in a 20 μL volume) or PBS control are injected into the fascia indentation.

P. aeruginosa PA103 [2] = test: Implant model of infection with PA103; type: in vivo; conditions: prophylaxis tobramycin 3.5 mg/kg i.p. 1 h before implantation and infection, FIG. 2A
Protocol: as §1, §3
(§4) Implant surgery and wound surgery and surgical site infection are performed according to the following method. On the day of surgery, all mice are anesthetized by an intraperitoneal injection of a ketamine/xylazine mixture (90 mg/kg ketamine+5 mg/kg xylazine for mice). The back of the animals is shaved using an electric shave and scrubbed with alcohol swabs 3 times, a topical antiseptic solution (Hibiclens; chlorhexidine gluconate) is applied to the skin. The surgical procedures are performed with sterile instruments, sterile surgical gloves, and aseptic techniques as follows. […]

USA300 MRSA = test: Implant model of infection with USA300 MRSA; type: in vivo
Protocol: as §1, §2, §3
as §4, with “follows. For wound surgical procedure, a sterile biopsy punch (5-7 mm diameter) is used to punch through the full thickness of the back skin below the shoulder blades.” for “follows.”

leukocytes = test: Leukocyte migration (H&E staining) and activation (MPO ELISA) in normal wound; type: in vivo, C57B mice; conditions: compared to PBS, FIGS. 10A-10D
Description: FIGS. 10A-10D illustrate that immunomodulatory treatment enhances leukocyte migration and neutrophil activation in a normal wound. (10A, 10B—CCL3, 10C—LPS, fMLF, 10D—GM-CSF), N=4; Significance determined as compared to PBS *<0.05, **p<0.01, ***p<0.001.
We next examined the impact of CCL3 topical treatment on leukocyte migration by H&E staining, and on leukocyte activation by myeloperoxidase (MPO) measurements by ELISA. (MPO is primarily used as a marker for neutrophil activation but it can also be expressed to lesser extent in macrophages).

MRSA = test: Normal wound model of MRSA infection; type: in vivo; conditions: FIG. 6B
Protocol: as §3
as §4, with “follows. For wound surgical procedure, a sterile biopsy punch (5-7 mm diameter) is used to punch through the full thickness of the back skin below the shoulder blades.” for “follows.”

For `NC[C@H]1O[C@H](O[C@H]2[C@H](O)[C@@H](O[C@H]3O[C@H](CO)[C@@H](O)[C@H](N)[C@H]3O)[C@H](N)C[C@@H]2N)[C@H](N)C[C@@H]1O` [tobramycin], the “infection levels in wound tissues after prophylaxis antibiotic” value (P. aeruginosa PA103 [1]; C57BL/6 mice, 3.5 mg/kg i.p. 1 h before 10^6 CFU PA103, 24 h following infection, FIG. 15B) was “effective” and the “bacterial loads on implants as compared to implants treated with immunomodulators” value (P. aeruginosa PA103 [2]) was “significantly higher”.

With `CN[C@H](CC(C)C)C(=O)N[C@H]1C(=O)N[C@@H](CC(N)=O)C(=O)N[C@H]2C(=O)N[C@H]3C(=O)N[C@H](C(=O)N[C@H](C(=O)O)c4cc(O)cc(O)c4-c4cc3ccc4O)[C@H](O)c3ccc(c(Cl)c3)Oc3cc2cc(c3O[C@@H]2O[C@H](CO)[C@@H](O)[C@H](O)[C@H]2O[C@H]2C[C@](C)(N)[C@H](O)[C@H](C)O2)Oc2ccc(cc2Cl)[C@H]1O` [vancomycin] the “infection levels at implant surgical site (Tissue & Implant) or a distant site (Spleen)” value (USA300 MRSA; C57BL/6 mice, prophylaxis antibiotic i.p. 1 h before 10^6 CFU USA300, 24 h following infection, FIG. 15A) was “effective” and the “bacterial loads on implants as compared to implants treated with immunomodulators” value (USA300 MRSA; prophylaxis vancomycin 40 mg/kg i.p., FIG. 15A & 2C) was “significantly higher”.

For “Granulocyte-macrophage colony-stimulating factor [GM-CSF]”, the “PA103 infection in wounds as compared to PBS-treated wounds” value (P. aeruginosa PA103 [1]; C57BL mice, 10^6 PA103, systemic 10 μg/kg i.p. 1 h prior to surgery, 24 h, FIG. 2B) was “significantly reduce”, the “reduction of PA103 infection in wounds, compared with CCL3 or tobramycin” value (P. aeruginosa PA103 [1]; systemic GM-CSF 10 μg/kg i.p., FIG. 2B) was “not as effective” and the “leukocyte migration and neutrophil activation in a normal wound” value (leukocytes) was “enhances”.

For “IL-1β: pro-inflammatory cytokine interleukin-1 (SEQ ID NO: 11, precursor)”, the “infection control against P. aeruginosa PA103 in normal wounds” value (P. aeruginosa PA103 [1]; C57B mice, immunomodulator added locally at time of infection, compared to PBS, FIGS. 3A, 4A, 4B, 6A) was “effective” and the “controlling MRSA infection in normal wound model” value (MRSA) was “effective”.
